Results: patent US9834518B2, “Compounds for inhibiting cell proliferation in EGFR-driven cancers” (ARIAD Pharmaceuticals, Inc., priority 2011, dated 2017)

How the values were obtained:
[1] = molecular target: human EGFR (native sequence) (Homo sapiens, UniProt P00533); experiment: Kinase inhibition, human EGFR (native sequence); type: biochemical; settings: 10 μM ATP; 10 pt curves, 3 μM top concentration (singlicates)
Outline: (§1)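 With ATP at 10 μM, single-replicate 10-point dose curves starting at 3 μM top concentration were run against each EGFR form: wild-type, L858R, and the L858R/T790M double mutant.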

[2] = molecular target: EGFR bearing the L858R mution (Homo sapiens, UniProt P00533, L858R); experiment: Kinase inhibition, EGFR L858R; type: biochemical; settings: 10 μM ATP; 10 pt curves, 3 μM top concentration (singlicates)
Chain of EGFR bearing the L858R mution (P00533 25-1210 L858R): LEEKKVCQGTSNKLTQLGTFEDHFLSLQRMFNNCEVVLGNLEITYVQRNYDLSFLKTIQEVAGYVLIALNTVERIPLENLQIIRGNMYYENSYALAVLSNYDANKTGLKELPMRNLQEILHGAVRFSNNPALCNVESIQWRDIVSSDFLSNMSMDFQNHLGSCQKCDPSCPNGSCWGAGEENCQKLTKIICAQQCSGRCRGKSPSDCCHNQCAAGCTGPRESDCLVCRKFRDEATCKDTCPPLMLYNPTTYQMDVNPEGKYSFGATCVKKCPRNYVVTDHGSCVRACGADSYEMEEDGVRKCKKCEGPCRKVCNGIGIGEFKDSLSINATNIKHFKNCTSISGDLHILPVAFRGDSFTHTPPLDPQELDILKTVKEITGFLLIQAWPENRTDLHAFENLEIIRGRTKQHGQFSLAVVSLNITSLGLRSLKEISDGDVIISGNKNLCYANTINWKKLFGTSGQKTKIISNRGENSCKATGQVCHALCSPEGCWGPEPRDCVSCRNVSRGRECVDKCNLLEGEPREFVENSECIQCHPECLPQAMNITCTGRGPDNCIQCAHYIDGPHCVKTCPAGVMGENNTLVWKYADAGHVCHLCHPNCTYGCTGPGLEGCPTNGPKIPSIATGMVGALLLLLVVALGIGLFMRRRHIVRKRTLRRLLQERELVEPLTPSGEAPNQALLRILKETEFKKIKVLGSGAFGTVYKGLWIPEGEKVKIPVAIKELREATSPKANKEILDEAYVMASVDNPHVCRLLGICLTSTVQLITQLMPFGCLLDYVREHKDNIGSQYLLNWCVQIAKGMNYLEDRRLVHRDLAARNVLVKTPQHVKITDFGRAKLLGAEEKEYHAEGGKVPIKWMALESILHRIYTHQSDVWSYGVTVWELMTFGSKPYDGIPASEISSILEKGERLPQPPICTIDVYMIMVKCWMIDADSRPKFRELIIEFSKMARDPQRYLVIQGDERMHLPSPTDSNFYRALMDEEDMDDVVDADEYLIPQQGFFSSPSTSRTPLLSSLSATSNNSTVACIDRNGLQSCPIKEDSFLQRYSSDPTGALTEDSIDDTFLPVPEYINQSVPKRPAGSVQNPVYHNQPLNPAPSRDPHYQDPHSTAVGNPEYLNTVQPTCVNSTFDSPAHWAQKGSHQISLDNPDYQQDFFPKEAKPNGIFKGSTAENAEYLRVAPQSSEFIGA
Outline: as §1

[3] = molecular target: EGFR bearing the L858R/T790M double mutation (Homo sapiens, UniProt P00533, L858R/T790M); experiment: Kinase inhibition, EGFR L858R/T790M; type: biochemical; settings: 10 μM ATP; 10 pt curves, 3 μM top concentration (singlicates)
Chain of EGFR bearing the L858R/T790M double mutation (P00533 25-1210 T790M/L858R): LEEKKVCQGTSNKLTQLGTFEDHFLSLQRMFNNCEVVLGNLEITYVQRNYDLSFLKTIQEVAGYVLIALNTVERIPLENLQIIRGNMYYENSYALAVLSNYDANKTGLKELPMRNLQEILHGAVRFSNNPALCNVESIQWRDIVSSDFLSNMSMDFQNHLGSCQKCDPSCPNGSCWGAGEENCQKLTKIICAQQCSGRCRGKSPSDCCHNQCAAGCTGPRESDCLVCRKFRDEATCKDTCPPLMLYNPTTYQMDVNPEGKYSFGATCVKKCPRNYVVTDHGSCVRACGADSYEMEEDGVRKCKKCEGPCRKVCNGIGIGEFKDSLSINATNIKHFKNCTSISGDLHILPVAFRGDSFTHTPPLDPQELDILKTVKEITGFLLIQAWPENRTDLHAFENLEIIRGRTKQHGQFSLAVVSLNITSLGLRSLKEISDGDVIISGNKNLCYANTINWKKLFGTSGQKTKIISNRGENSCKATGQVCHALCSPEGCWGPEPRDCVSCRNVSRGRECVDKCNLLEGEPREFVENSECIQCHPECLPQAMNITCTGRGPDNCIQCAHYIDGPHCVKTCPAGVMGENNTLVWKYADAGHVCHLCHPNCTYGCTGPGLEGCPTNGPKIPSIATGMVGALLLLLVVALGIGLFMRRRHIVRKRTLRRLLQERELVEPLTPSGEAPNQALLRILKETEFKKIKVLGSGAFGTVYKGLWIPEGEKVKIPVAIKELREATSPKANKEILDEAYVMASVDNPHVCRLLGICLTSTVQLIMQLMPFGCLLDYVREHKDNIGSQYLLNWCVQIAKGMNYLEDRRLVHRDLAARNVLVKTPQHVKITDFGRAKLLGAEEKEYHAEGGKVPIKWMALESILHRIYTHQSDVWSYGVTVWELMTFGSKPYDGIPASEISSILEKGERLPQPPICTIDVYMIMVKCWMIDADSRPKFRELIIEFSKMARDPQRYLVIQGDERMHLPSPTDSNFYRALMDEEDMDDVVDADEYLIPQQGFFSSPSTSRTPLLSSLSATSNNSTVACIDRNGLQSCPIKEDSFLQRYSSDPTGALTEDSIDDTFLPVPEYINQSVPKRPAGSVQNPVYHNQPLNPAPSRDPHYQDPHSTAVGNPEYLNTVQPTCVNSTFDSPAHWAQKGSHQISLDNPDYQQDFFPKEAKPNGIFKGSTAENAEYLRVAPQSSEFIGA
Outline: as §1

BAF3 PARENTAL = experiment: Cell proliferation (MTT), BAF3 parental; type: cell-based; settings: Mus musculus
Experimental: We also assessed the antiproliferative activity of compounds of Formula (I) against BaF3 cells expressing the target EGFR mutations or control (i.e., cell lines expressing wildtype EGFR). Assays were conducted using MTT.

[4] = molecular target: BAF3 EGFR DEL T790M PURO POOL (Homo sapiens, UniProt P00533, DEL746-750/T790M, cells depend on it); experiment: Cell proliferation (MTT), BAF3 EGFR DEL T790M; type: cell-based
Chain of BAF3 EGFR DEL T790M PURO POOL (P00533 with tags, fused parts or gaps DEL746-750/T790M): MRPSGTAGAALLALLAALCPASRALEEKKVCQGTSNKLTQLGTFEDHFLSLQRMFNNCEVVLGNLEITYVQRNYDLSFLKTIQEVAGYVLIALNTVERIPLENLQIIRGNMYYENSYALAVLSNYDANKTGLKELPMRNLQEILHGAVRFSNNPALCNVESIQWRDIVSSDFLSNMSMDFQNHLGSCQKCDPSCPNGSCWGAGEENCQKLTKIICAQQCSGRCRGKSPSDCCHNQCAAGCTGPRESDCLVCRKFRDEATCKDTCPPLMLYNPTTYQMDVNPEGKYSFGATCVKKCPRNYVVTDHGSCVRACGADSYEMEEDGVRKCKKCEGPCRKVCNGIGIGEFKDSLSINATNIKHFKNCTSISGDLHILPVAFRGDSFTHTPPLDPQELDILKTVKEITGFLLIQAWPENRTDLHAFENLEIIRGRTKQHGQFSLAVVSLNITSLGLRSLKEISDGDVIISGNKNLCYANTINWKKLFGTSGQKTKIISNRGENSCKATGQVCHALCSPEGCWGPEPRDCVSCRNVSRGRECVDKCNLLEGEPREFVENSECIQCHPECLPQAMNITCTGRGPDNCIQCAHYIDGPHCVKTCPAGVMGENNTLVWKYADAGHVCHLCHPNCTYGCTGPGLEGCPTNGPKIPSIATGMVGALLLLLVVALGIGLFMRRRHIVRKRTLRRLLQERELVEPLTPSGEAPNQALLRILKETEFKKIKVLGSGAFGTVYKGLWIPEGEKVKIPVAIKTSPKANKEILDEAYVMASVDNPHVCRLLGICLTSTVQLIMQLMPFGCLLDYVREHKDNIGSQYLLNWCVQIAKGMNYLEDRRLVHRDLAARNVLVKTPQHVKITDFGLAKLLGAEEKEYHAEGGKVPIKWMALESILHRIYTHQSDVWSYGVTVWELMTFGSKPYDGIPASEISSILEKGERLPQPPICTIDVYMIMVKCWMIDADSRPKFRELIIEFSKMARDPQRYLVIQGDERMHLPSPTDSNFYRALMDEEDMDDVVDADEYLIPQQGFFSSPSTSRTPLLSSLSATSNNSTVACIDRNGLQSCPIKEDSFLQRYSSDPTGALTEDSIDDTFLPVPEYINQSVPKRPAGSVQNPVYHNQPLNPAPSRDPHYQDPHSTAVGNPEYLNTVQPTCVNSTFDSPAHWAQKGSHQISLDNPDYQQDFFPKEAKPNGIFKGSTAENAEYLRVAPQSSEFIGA
Outline: (§2)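 MTT read-out; BaF3 lines carrying EGFR mutations vs wildtype-EGFR BaF3 control.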

[5] = system: BAF3 EGFR L858R-T790M PURO POOL; experiment: Cell proliferation (MTT), BAF3 EGFR L858R-T790M; type: cell-based; settings: Ba/F3 EGFR
Outline: as §2

Chain of human EGFR (native sequence) (P00533 25-1210): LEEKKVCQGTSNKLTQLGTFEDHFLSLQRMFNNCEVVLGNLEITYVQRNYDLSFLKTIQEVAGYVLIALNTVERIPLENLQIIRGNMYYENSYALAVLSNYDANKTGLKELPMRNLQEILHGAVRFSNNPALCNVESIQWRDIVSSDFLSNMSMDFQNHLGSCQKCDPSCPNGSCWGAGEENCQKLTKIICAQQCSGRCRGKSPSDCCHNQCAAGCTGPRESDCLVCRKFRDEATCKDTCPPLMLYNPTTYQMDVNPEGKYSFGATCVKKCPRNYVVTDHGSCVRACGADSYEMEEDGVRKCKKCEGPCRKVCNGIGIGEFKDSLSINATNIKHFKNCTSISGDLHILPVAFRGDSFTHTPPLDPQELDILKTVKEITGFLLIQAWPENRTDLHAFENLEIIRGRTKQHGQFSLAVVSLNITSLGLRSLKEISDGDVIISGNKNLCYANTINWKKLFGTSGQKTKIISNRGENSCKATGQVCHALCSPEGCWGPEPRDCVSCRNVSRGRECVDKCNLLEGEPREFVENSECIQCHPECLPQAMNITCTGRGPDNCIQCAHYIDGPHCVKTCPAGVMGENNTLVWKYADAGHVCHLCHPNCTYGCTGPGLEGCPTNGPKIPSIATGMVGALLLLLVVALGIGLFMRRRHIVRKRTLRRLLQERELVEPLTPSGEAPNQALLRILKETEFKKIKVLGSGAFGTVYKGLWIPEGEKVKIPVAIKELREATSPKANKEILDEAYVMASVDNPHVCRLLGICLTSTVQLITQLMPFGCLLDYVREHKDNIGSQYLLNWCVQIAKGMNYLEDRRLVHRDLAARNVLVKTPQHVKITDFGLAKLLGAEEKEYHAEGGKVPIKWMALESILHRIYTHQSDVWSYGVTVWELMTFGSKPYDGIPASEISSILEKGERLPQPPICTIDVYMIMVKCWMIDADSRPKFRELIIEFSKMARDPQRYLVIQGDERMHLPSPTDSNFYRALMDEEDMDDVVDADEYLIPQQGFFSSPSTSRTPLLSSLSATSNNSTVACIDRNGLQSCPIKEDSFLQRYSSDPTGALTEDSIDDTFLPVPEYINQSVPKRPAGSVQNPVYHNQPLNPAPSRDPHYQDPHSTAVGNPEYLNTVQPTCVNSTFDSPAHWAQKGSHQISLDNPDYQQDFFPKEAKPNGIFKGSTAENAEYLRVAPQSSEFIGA

Structure (SMILES)	IC50 [1] [nM]	IC50 [2] [nM]	IC50 [3] [nM]	IC50 (BAF3 PARENTAL) [nM]	IC50 [4] [nM]	IC50 [5] [nM]
C=CC(=O)Nc1cc(Nc2ncc(Cl)c(Nc3ccccc3P(C)(C)=O)n2)c(OC)cc1OCC(COC)N(C)C (stereo not drawn) [Example 37, N-(5-((5-chloro-4-((2-(dimethylphosphoryl)phenyl)amino)pyrimidin-2-yl)amino)-2-(2-(dimethylamino)-3-methoxypropoxy)-4-methoxyphenyl)acrylamide]	< 51	< 51	< 51	≥ 250	< 51	< 51
C=CC(=O)Nc1cc(Nc2ncc(Cl)c(Nc3ccccc3P(C)(C)=O)n2)c(OC)cc1CCN(CC)CC [Example 41, N-(5-((5-chloro-4-((2-(dimethylphosphoryl)phenyl)amino)pyrimidin-2-yl)amino)-2-(2-(diethylamino)ethyl)-4-methoxyphenyl)acrylamide]	< 51	< 51	< 51	≥ 250	< 51	51 to 100
C=CC(=O)Nc1ccc(OC)c(Nc2nccc(Nc3ccccc3P(C)(C)=O)n2)c1 [Example 13, N-(3-((4-((2-(dimethylphosphoryl)phenyl)amino)pyrimidin-2-yl)amino)-4-methoxyphenyl)acrylamide]	≥ 250	51 to 100	< 51	≥ 250	101 to 250	≥ 250
C=CC(=O)Nc1cc(Nc2ncc(Cl)c(Nc3ccccc3P(C)(C)=O)n2)c(OC)cc1OC [Example 20, N-(5-((5-chloro-4-((2-(dimethylphosphoryl)phenyl)amino)pyrimidin-2-yl)amino)-2,4-dimethoxyphenyl)acrylamide]	≥ 250	< 51	< 51	≥ 250	< 51	101 to 250
